Like-named read-outs stand apart in the source and are kept apart here. Non-standard residues stand in square brackets, D forms with d. Residues, ends and D or L forms follow the SMILES beside them. 2Pal = N[C@@H](Cc1ccccn1)C(=O)O; 3Pal = N[C@@H](Cc1cccnc1)C(=O)O; 4Pal = N[C@@H](Cc1ccncc1)C(=O)O
How the values were obtained:
[1] = tested on: kappa opioid receptor (KOR); conditions: cited from earlier work
[2] = biological target: KOR (kappa opioid receptor) (Homo sapiens, UniProt P41145); test: Radioligand binding assay, KOR affinity; conditions: for Selectivity (KOR/MOR): ratio of KOR and MOR Ki; for Ki: read-out: KOR Ki (nM ± SEM)
Sequence of KOR (kappa opioid receptor) (P41145 whole entry): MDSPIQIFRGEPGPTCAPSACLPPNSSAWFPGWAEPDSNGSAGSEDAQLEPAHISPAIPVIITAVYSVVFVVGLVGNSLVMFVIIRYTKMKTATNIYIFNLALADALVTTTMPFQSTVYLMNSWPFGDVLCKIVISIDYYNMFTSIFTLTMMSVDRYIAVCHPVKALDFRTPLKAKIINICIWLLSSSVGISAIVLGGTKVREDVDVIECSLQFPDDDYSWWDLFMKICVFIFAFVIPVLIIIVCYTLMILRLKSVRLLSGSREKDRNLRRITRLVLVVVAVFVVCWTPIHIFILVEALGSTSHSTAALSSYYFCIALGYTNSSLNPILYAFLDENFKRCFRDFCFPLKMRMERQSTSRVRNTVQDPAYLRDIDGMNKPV
Method: (§1) The analogs were evaluated in vivo in an analgesic assay (mouse 55° C. warm-water tail withdrawal assay) for opioid agonist and antagonist activity. Representative analogs were evaluated in a conditioned place preference (CPP) assay for their ability to prevent stress-induced relapse to cocaine-seeking behavior. Further, representative analogs were evaluated for opioid receptor affinity in radioligand binding assays (Table 2).

[3] = biological target: T1, kappa opioid receptor (KOR) (Mus musculus, UniProt P33534); conditions: p.o.; Eans et al., 2013; cited from earlier work
T1 construct: from tissue; host or cells: living mouse (in vivo; CNS)
T1 sequence (P33534 whole entry): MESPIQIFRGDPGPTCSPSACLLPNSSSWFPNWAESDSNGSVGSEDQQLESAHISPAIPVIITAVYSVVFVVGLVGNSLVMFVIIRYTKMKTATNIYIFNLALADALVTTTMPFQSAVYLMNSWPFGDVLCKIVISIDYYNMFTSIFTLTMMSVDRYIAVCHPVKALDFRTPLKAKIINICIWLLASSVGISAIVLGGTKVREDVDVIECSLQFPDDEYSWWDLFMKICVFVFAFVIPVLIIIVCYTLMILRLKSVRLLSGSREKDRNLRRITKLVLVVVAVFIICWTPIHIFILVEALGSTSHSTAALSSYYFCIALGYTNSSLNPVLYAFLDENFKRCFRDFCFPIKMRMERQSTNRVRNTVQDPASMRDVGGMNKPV

mice [4] = conditions: p.o., CPP assay; Eans et al., 2013; cited from earlier work
[5] = Respiration following oral administration; format: in vivo; conditions: 10 or 30 mg/kg p.o.
Text: (§2) FIGS. 6A-B provides the results of studies on locomotion and respiration following oral administration of JVA-3620.
(§3) FIG. 7A-B provides the results of studies on locomotion and respiration following oral administration of JVA-3628.

[6] = biological target: T1, kappa opioid receptor (KOR); test: Mouse 55° C. warm-water tail withdrawal assay, opioid antagonist activity (antagonism of KOR agonist U50,488); format: in vivo; conditions: for duration of KOR antagonism of centrally administered U50,488: 30 mg/kg p.o.; for selectivity of opioid antagonism (KOR vs. MOR and DOR agonists): U50,488, morphine, SNC-80; for antagonism of centrally (i.c.v.) administered KOR agonist U50,488: peptide given orally
Method: as §1

MOR (mu opioid receptor) = MOR (mu opioid receptor) (Homo sapiens, UniProt P35372); test: Radioligand binding assay, MOR affinity; conditions: read-out: MOR Ki (nM ± SEM)
Sequence of MOR (mu opioid receptor) (P35372 whole entry): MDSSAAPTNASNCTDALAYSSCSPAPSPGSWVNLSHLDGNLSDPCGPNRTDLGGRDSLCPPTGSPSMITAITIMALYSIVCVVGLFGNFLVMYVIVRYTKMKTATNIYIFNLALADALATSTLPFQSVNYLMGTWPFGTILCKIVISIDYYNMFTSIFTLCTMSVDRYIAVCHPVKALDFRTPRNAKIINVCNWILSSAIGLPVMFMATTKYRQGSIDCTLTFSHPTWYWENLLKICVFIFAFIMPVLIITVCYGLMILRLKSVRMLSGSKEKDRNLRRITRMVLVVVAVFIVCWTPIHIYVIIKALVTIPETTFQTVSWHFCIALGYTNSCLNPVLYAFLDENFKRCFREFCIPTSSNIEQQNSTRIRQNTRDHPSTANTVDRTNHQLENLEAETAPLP
Method: as §1

mice [7] = test: Conditioned place preference (CPP) assay, stress-induced relapse to cocaine-seeking behavior; format: in vivo, mouse; conditions: p.o.
Method: as §1

[8] = Locomotion following oral administration; format: in vivo; conditions: 10 or 30 mg/kg p.o.
Text: as §2, §3

mice [9] = test: Mouse 55° C. warm-water tail withdrawal assay, antinociception (opioid agonist activity); format: in vivo
Method: as §1

Row | Molecule | Selectivity (KOR/MOR) [2] | Ki [2] [nM] | KOR antagonism ([6]; i.c.v. administration) | Ki (MOR (mu opioid receptor)) [nM] | antinociception (agonist activity) (mice [9]; i.c.v. administration) | other results
1 | CC(C)[C@@H](CN1CC[C@@](C)(c2cccc(O)c2)[C@@H](C)C1)NC(=O)[C@H]1Cc2ccc(O)cc2CN1 [JDTic] |  |  |  |  |  | duration of activity after a single dose ([1]; in vivo): weeks in some species
2 | O=C1N[C@H](Cc2c[nH]c3ccccc23)C(=O)N[C@@H](Cc2ccccc2)C(=O)N2CCC[C@@H]2C(=O)N[C@H]1Cc1ccccc1 [JVA-2802, cyclo[Phe′-D-Pro-Phe^3-D-Trp^4]] (cyclo(F[dP]F[dW])) | 1/12 | 21.8 |  |  |  | duration of action ([1]; Ross et al., 2012, Eans et al., 2013): < 18 h; oral dose required to significantly antagonize centrally administered U50,488 [3]: 30 mg/kg; oral dose preventing stress-induced relapse of cocaine-seeking behavior (mice [4]): 60 mg/kg
3 | O=C1N[C@H](Cc2ccccc2)C(=O)N[C@@H](Cc2ccccc2)C(=O)N2CCC[C@@H]2C(=O)N[C@H]1Cc1ccccc1 [JVA-3620] (cyclo(F[dP]F[dF])) | 1/38 | 28.9 ± 4.9 | exhibited KOR antagonism | 1100 ± 80 |  | respiration [5]: decreases respiration during the first hour; duration of KOR antagonism of centrally administered U50,488 [6]: 6 to 12 h; selectivity of opioid antagonism (KOR vs. MOR and DOR agonists) [6]: selectively antagonized the KOR agonist U50,488, but not the mu opioid receptor agonist morphine or the delta opioid receptor antagonist SNC-80; KOR antagonism ([6]; oral (p.o.) administration): exhibited KOR antagonism; oral dose required to significantly antagonize centrally administered U50,488 ([6]; p.o.): 10 mg/kg; antagonism of centrally (i.c.v.) administered KOR agonist U50,488 [6]: antagonized centrally (i.c.v.) administered KOR agonist; oral dose preventing stress-induced relapse of cocaine-seeking behavior (mice [7]): 30 mg/kg; locomotion [8]: does not produce hyperlocomotion like morphine, but instead can significantly decrease locomotion during the first hour
4 | O=C1N[C@H](Cc2c[nH]c3ccccc23)C(=O)N[C@@H](Cc2c[nH]cn2)C(=O)N2CCC[C@@H]2C(=O)N[C@H]1Cc1ccccc1 [JVA-3622] (cyclo(H[dP]F[dW])) |  | 667 ± 470 |  | 2500 ± 510 |  | 
5 | O=C1N[C@H](Cc2c[nH]c3ccccc23)C(=O)N[C@@H](Cc2ccccc2)C(=O)N2CCC[C@@H]2C(=O)N[C@H]1Cc1c[nH]cn1 [JVA-3623] (cyclo(F[dP]H[dW])) |  | 67.7 ± 9.2 |  | 366 ± 98 |  | 
6 | O=C1N[C@H](Cc2c[nH]c3ccccc23)C(=O)N[C@@H](Cc2ccccc2)C(=O)N2CCC[C@@H]2C(=O)N[C@H]1Cc1cccnc1 [JVA-3624] (cyclo(F[dP][3Pal][dW])) | 1/23 | 8.34 ± 1.48 | not KOR antagonism | 191 ± 39 | exhibits antinociception | antinociception ED50 (mice [9]; i.c.v.): 1.13 nmol
7 | O=C1N[C@H](Cc2c[nH]c3ccccc23)C(=O)N[C@@H](Cc2ccccc2)C(=O)N2CCC[C@@H]2C(=O)N[C@H]1Cc1ccncc1 [JVA-3625] (cyclo(F[dP][4Pal][dW])) | 1/12 | 30.7 ± 6.8 |  | 371 ± 81 |  | 
8 | O=C1N[C@H](Cc2c[nH]c3ccccc23)C(=O)N[C@@H](Cc2ccccc2)C(=O)N2CCC[C@@H]2C(=O)N[C@H]1Cc1ccccn1 [JVA-3626] (cyclo(F[dP][2Pal][dW])) | 1/20 | 82.3 ± 13.8 |  | 1610 ± 590 |  | 
9 | O=C1N[C@H](Cc2c[nH]c3ccccc23)C(=O)N[C@@H](Cc2ccccn2)C(=O)N2CCC[C@@H]2C(=O)N[C@H]1Cc1ccccc1 [JVA-3627] (cyclo([2Pal][dP]F[dW])) | 1/43 | 58.4 ± 9.3 |  | 2530 ± 460 |  | 
10 | O=C1N[C@H](Cc2c[nH]c3ccccc23)C(=O)N[C@@H](Cc2cccnc2)C(=O)N2CCC[C@@H]2C(=O)N[C@H]1Cc1ccccc1 [JVA-3628] (cyclo([3Pal][dP]F[dW])) | 1/24 | 41.8 ± 16.3 | selective KOR antagonism | 988 ± 146 |  | respiration [5]: decreases respiration during the first hour; duration of KOR antagonism of centrally administered U50,488 [6]: 12 to 24 h; selectivity of opioid antagonism (KOR vs. MOR and DOR agonists) [6]: opioid antagonism is selective for KOR; KOR antagonism ([6]; oral (p.o.) administration): antagonizing both peripherally and administered KOR agonist; antagonism of centrally (i.c.v.) administered KOR agonist U50,488 [6]: exhibits kappa opioid receptor (KOR) antagonism of centrally administered KOR agonist activity; oral dose preventing stress-induced relapse of cocaine-seeking behavior (mice [7]): 30 mg/kg; locomotion [8]: does not produce hyperlocomotion like morphine, but instead can significantly decrease locomotion during the first hour
11 | O=C1N[C@H](Cc2c[nH]c3ccccc23)C(=O)N[C@@H](Cc2ccncc2)C(=O)N2CCC[C@@H]2C(=O)N[C@H]1Cc1ccccc1 [JVA-3629] (cyclo([4Pal][dP]F[dW])) | 1/86 | 32 ± 4.1 |  | 2740 ± 310 |  | 
12 | [D-2′-Pal^4]CJ-15,208 [JVA-3671] |  |  | exhibits KOR antagonist activity |  | exhibits antinociception | opioid receptor mediating the antinociception (mice [9]; i.c.v. administration): mediated by delta opioid receptors (DOR)
13 | [D-Bip^4]CJ-15,208 [JVA-3667] |  |  | weak KOR antagonist |  | agonist | selectivity of opioid antagonism (KOR vs. MOR and DOR agonists) [6]: selective for KOR; KOR antagonism ([6]; oral (p.o.) administration): only KOR antagonism
14 | [D-His^4]CJ-15,208 [JVA-3670] |  |  | not KOR antagonist |  | agonist | KOR antagonism ([6]; oral (p.o.) administration): only KOR antagonism
15 | [D-Tyr^4]CJ-15,208 [JVA-3669] |  |  | not KOR antagonist |  | agonist | 
16 | [D-hPhe^4]CJ-15,208 [JVA-3668] |  |  | not KOR antagonist |  | agonist | 

From patent US11820835B2, “Cyclic tetrapeptide analogs” (University of Kansas, priority 2018, dated 2023)
